Measurements reported in patent US9770445B2, “Sulfoximine substituted 5-fluoro-N-(pyridin-2-yl)pyridin-2-amine derivatives and their use as CDK9 kinase inhibitors” (BAYER PHARMA AKTIENGESELLSCHAFT, priority 2013, dated 2017).

Key:
[1] = test system: HeLa-MaTu-ADR, multidrug-resistant human cervical carcinoma cells; test: Proliferation assay, HeLa-MaTu-ADR (crystal violet); assay type: cell-based; settings: 96 h, 4 days, read-out: Inhibition of HeLa-MaTu-ADR cell proliferation
Protocol: (§1) Cultivated tumour cells (HeLa, human cervical tumour cells, ATCC CCL-2; NCI-H460, human non-small cell lung carcinoma cells, ATCC HTB-177; A2780, human ovarian carcinoma cells, ECACC #93112519; DU 145, hormone-independent human prostate carcinoma cells, ATCC HTB-81; HeLa-MaTu-ADR, multidrug-resistant human cervical carcinoma cells, EPO-GmbH Berlin; Caco-2, human colorectal carcinoma cells, ATCC HTB-37; B16F10, mouse melanoma cells, ATCC CRL-6475) were plated at a density of 5,000 cells/well (DU145, HeLa-MaTu-ADR), 3,000 cells/well (NCI-H460, HeLa), 2,500 cells/well (A2780), 1,500 cells/well (Caco-2), or 1,000 cells/well (B16F10) in a 96-well multititer plate in 200 μL of their respective growth medium supplemented 10% fetal calf serum. After 24 hours, the cells of one plate (zero-point plate) were stained with crystal violet (see below), while the medium of the other plates was replaced by fresh culture medium (200 μl), to which the test substances were added in various concentrations (0 μM, as well as in the range of 0.001-10 μM; the final concentration of the solvent dimethyl sulfoxide was 0.5%). The cells were incubated for 4 days in the presence of test substances. Cell proliferation was determined by staining the cells with crystal violet: the cells were fixed by adding 20 μl/measuring point of an 11% glutaric aldehyde solution for 15 minutes at room temperature. After three washing cycles of the fixed cells with water, the plates were dried at room temperature. The cells were stained by adding 100 μl/measuring point of a 0.1% crystal violet solution (pH 3.0). After three washing cycles of the stained cells with water, the plates were dried at room temperature. The dye was dissolved by adding 100 μl/measuring point of a 10% acetic acid solution. The extinction was determined by photometry at a wavelength of 595 nm. The change of cell number, in percent, was calculated by normalization of the measured values to the extinction values of the zero-point plate (=0%) and the extinction of the untreated (0 μm) cells (=100%). The IC50 values (inhibitory concentration at 50% of maximal effect) were determined by means of a 4 parameter fit.

[2] = test system: NCI-H460, human non-small cell lung carcinoma cells; test: Proliferation assay, NCI-H460 (crystal violet); assay type: cell-based; settings: 96 h, NCI-H460, 4 days, read-out: Inhibition of NCI-H460 cell proliferation
Protocol: as §1

[3] = test system: Caco-2, human colorectal carcinoma cells; test: Proliferation assay, Caco-2 (crystal violet); assay type: cell-based; settings: 96 h, Caco-2, 4 days, read-out: Inhibition of Caco-2 cell proliferation
Protocol: as §1

[4] = test system: DU 145, hormone-independent human prostate carcinoma cells; test: Proliferation assay, DU145 (crystal violet); assay type: cell-based; settings: DU-145, 96 h, DU145, 4 days, read-out: Inhibition of DU145 cell proliferation
Protocol: as §1

[5] = test system: HeLa, human cervical tumour cells; test: Proliferation assay, HeLa (crystal violet); assay type: cell-based; settings: 96 h, 4 days, read-out: Inhibition of HeLa cell proliferation
Protocol: as §1

[6] = test system: B16F10, mouse melanoma cells; test: Proliferation assay, B16F10 (crystal violet); assay type: cell-based; settings: B16-F10, 96 h, B16F10, 4 days, read-out: Inhibition of B16F10 cell proliferation
Protocol: as §1

CDK9/CycT1 = biological target: T1, CDK9/CycT1 (Homo sapiens, UniProt P50750); test: CDK9/CycT1 kinase assay (Method 1a, TR-FRET); assay type: biochemical; settings: for IC50: Method 1a, 10 μM ATP; for Selectivity CDK9 over CDK2: IC50 (CDK2)/IC50 (CDK9): ratio of Method 2 to Method 1a values
T1 construct: Recombinant full-length His-tagged human CDK9 and CycT1; His; purchased Invitrogen PV4131; host or cells: insect cells
T1 sequence (P50750 whole entry): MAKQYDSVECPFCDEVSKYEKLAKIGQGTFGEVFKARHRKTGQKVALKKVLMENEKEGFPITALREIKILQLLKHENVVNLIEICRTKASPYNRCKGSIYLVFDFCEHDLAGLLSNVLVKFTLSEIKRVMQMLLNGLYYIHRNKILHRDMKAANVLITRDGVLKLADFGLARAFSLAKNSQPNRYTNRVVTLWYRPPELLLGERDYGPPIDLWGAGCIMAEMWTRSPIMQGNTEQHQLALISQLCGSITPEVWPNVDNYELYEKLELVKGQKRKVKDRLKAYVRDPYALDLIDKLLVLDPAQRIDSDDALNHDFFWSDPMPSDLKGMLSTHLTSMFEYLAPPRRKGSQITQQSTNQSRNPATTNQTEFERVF
T1 sequence (O60563 whole entry partner): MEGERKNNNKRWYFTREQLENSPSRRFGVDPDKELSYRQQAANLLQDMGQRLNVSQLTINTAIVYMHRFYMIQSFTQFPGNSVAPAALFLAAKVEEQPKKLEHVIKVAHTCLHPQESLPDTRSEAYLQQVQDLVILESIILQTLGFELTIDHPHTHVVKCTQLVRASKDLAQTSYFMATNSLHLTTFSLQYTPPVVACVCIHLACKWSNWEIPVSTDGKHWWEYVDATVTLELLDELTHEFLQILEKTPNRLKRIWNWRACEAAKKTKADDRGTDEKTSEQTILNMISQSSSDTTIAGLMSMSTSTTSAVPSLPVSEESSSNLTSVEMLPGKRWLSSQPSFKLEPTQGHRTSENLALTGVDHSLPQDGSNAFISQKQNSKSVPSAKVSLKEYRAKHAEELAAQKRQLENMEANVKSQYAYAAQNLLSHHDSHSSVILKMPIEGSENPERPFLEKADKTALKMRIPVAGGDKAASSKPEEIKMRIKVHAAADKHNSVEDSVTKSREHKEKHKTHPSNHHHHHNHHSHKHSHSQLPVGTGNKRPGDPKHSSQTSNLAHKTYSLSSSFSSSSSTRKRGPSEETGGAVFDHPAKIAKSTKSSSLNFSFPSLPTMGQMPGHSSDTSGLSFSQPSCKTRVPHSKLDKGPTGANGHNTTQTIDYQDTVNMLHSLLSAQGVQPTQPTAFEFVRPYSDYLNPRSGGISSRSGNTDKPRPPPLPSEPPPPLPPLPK
Description: 1a. CDK9/CyeT1 Kinase Assay:
CDK9/CycT1-inhibitory activity of compounds of the present invention was quantified employing the CDK9/CycT1 TR-FRET assay as described in the following paragraphs:
Recombinant full-length His-tagged human CDK9 and CycT1, expressed in insect cells and purified by Ni-NTA affinity chromatography, were purchased from Invitrogen (Cat. No PV4131). As substrate for the kinase reaction biotinylated peptide biotin-Ttds-YISPLKSPYKISEG (C-terminus in amid form) was used which can be purchased e.g. form the company JERINI Peptide Technologies (Berlin, Germany). For the assay 50 nl of a 100 fold concentrated solution of the test compound in DMSO was pipetted into a black low volume 384 well microtiter plate (Greiner Bio-One, Frickenhausen, Germany), 2 μl of a solution of CDK9/CycT1 in aqueous assay buffer [50 mM Tris/HCl pH 8.0, 10 mM MgCl2, 1.0 mM dithiothreitol, 0.1 mM sodium ortho-vanadate, 0.01% (v/v) Nonidet-P40 (Sigma)] were added and the mixture was incubated for 15 min at 22° C. to allow pre-binding of the test compounds to the enzyme before the start of the kinase reaction. Then the kinase reaction was started by the addition of 3 μl of a solution of adenosine-tri-phosphate (ATP, 16.7 μM=>final conc. in the 5 μl assay volume is 10 μM) and substrate (1.67 μM=>final conc. in the 5 μl assay volume is 1 μM) in assay buffer and the resulting mixture was incubated for a reaction time of 25 min at 22° C. The concentration of CDK9/CycT1 was adjusted depending of the activity of the enzyme lot and was chosen appropriate to have the assay in the linear range, typical concentrations were in the range of 1 μg/mL. The reaction was stopped by the addition of 5 μl of a solution of TR-FRET detection reagents (0.2 μM streptavidine-XL665 [Cisbio Bioassays, Codolet, France] and 1 nM anti-RB(pSer807/pSer811)-antibody from BD Pharmingen [#558389] and 1.2 nM LANCE EU-W1024 labeled anti-mouse IgG antibody [Perkin-Elmer, product no. AD0077]) in an aqueous EDTA-solution (100 mM EDTA, 0.2% (w/v) bovine serum albumin in 100 mM HEPES/NaOH pH 7.0).
The resulting mixture was incubated 1 h at 22° C. to allow the formation of complex between the phosphorylated biotinylated peptide and the detection reagents. Subsequently the amount of phosphorylated substrate was evaluated by measurement of the resonance energy transfer from the Eu-chelate to the streptavidine-XL. Therefore, the fluorescence emissions at 620 nm and 665 nm after excitation at 350 nm was measured in a HTRF reader, e.g. a Rubystar (BMG Labtechnologies, Offenburg, Germany) or a Viewlux (Perkin-Elmer). The ratio of the emissions at 665 nm and at […] was taken as the measure for the amount of phosphorylated substrate. The data were normalised (enzyme reaction without inhibitor=0% inhibition, all other assay components but no enzyme=100% inhibition).

[7] = test system: A2780, human ovarian carcinoma cells; test: Proliferation assay, A2780 (crystal violet); assay type: cell-based; settings: 96 h, A2780, 4 days, read-out: Inhibition of A2780 cell proliferation
Protocol: as §1, with “The IC50 values (inhibitory concentration at 50% of maximal effect) were determined by means of a 4 parameter fit.” left out

| Structure (SMILES) | IC50 [1] [nM] | IC50 [2] [nM] | IC50 [3] [nM] | IC50 [4] [nM] | IC50 [5] [nM] | IC50 [6] [nM] | IC50 (CDK9/CycT1) [nM] | Selectivity CDK9 over CDK2: IC50 (CDK2)/IC50 (CDK9) (CDK9/CycT1) | IC50 [7] [nM] |
| --- | --- | --- | --- | --- | --- | --- | --- | --- | --- |
| CCc1cc(CS(C)(=N)=O)cc(Nc2cc(-c3ccc(F)c4ccoc34)c(F)cn2)n1 (racemic) [Example 8, (rac)-N-{6-Ethyl-4-[(S-methylsulfonimidoyl)methyl]pyridin-2-yl}-5-fluoro-4-(4-fluoro-1-benzofuran-7-yl)pyridin-2-amine] | 8.8 | 35 | 9.4 | 11 | 7.6 | 32 | – | – | – |
| CCNC(=O)N=S(C)(=O)Cc1ccnc(Nc2cc(-c3ccc(F)c4ccoc34)c(F)cn2)c1 (racemic) [Example 12, (rac)-1-Ethyl-3-{[(2-{[5-fluoro-4-(4-fluoro-1-benzofuran-7-yl)pyridin-2-yl]amino}pyridin-4-yl)methyl](methyl)oxido-λ^6-sulfanylidene}urea] | – | – | – | – | – | – | 2.6 | 44 | – |
| CS(=O)(Cc1cc(Nc2cc(-c3ccc(F)c4ccoc34)c(F)cn2)nc(C(F)(F)F)c1)=NC(=O)C(F)(F)F (racemic) [Example 4, (rac)-2,2,2-Trifluoro-N-[{[2-{[5-fluoro-4-(4-fluoro-1-benzofuran-7-yl)pyridin-2-yl]amino}-6-(trifluoromethyl)pyridin-4-yl]methyl}(methyl)oxido-λ^6-sulfanylidene]acetamide] | 30 | 36 | 40 | 37 | 31 | 44 | 19 | 5.8 | – |
| CS(=O)(Cc1ccnc(Nc2cc(-c3ccc(F)c4ccoc34)c(F)cn2)c1)=NC(=O)C(F)(F)F (racemic) [Example 6, (rac)-2,2,2-Trifluoro-N-{[(2-{[5-fluoro-4-(4-fluoro-1-benzofuran-7-yl)pyridin-2-yl]amino}pyridin-4-yl)methyl](methyl)oxido-λ^6-sulfanylidene}acetamide] | 52 | 46 | 58 | 42 | 42 | 88 | 4.9 | 110 | – |
| CS(=O)(Cc1ccnc(Nc2cc(-c3ccc(F)c4ccoc34)c(F)cn2)c1)=NC(=O)NCC(F)(F)F (racemic) [Example 13, (rac)-1-{[(2-{[5-Fluoro-4-(4-fluoro-1-benzofuran-7-yl)pyridin-2-yl]amino}pyridin-4-yl)methyl](methyl)oxido-λ^6-sulfanylidene}-3-(2,2,2-trifluoroethyl)urea] | – | – | – | – | – | – | 2.6 | 108 | – |
| CS(=O)(Cc1ccnc(Nc2cc(-c3ccc(F)c4ccoc34)c(F)cn2)c1)=NC#N (racemic) [Example 9, (rac)-{[(2-{[5-fluoro-4-(4-fluoro-1-benzofuran-7-yl)pyridin-2-yl]amino}pyridin-4-yl)methyl](methyl)oxido-λ^6-sulfanylidene}cyanamide] | – | – | – | – | – | – | 2.6 | 56 | – |
| CS(=N)(=O)Cc1cc(Nc2cc(-c3ccc(F)c4ccoc34)c(F)cn2)nc(C(F)(F)F)c1 (racemic) [Example 3, (rac)-5-Fluoro-4-(4-fluoro-1-benzofuran-7-yl)-N-{4-[(S-methylsulfonimidoyl)methyl]-6-(trifluoromethyl)pyridin-2-yl}pyridin-2-amine] | 11 | 21 | 19 | 15 | 6 | 19 | 5.8 | 3.6 | 10 |
| Cc1cc(CS(C)(=N)=O)cc(Nc2cc(-c3ccc(F)c4ccoc34)c(F)cn2)n1 (racemic) [Example 7, (rac)-5-Fluoro-4-(4-fluoro-1-benzofuran-7-yl)-N-{6-methyl-4-[(S-methylsulfonimidoyl)-methyl]pyridin-2-yl}pyridin-2-amine] | 9.1 | 33 | 14 | 14 | 11 | 17 | 2.1 | 19 | – |
| CCOC(=O)N=S(C)(=O)Cc1ccnc(Nc2cc(-c3ccc(F)c4ccoc34)c(F)cn2)c1 (racemic) [Example 11, (rac)-Ethyl {[(2-{[5-fluoro-4-(4-fluoro-1-benzofuran-7-yl)pyridin-2-yl]amino}pyridin-4-yl)methyl](methyl)oxido-λ^6-sulfanylidene}carbamate] | – | – | – | – | – | – | 3.1 | 45 | – |
| CC(=O)N=S(C)(=O)Cc1ccnc(Nc2cc(-c3ccc(F)c4ccoc34)c(F)cn2)c1 (racemic) [Example 10, (rac)-N-{[(2-{[5-fluoro-4-(4-fluoro-1-benzofuran-7-yl)pyridin-2-yl]amino}pyridin-4-yl)methyl](methyl)oxido-λ^6-sulfanylidene}acetamide] | – | – | – | – | – | – | 2.7 | 61 | – |
| CS(=O)(Cc1cc(F)nc(Nc2cc(-c3ccc(F)c4ccoc34)c(F)cn2)c1)=NC(=O)C(F)(F)F (racemic) [Example 2, (rac)-2,2,2-Trifluoro-N-{[(2-fluoro-6-{[5-fluoro-4-(4-fluoro-1-benzofuran-7-yl)pyridin-2-yl]amino}pyridin-4-yl)methyl](methyl)oxido-λ^6-sulfanylidene}acetamide] | 30 | 32 | 35 | 32 | 31 | 42 | 7 | 54 | – |
